This is an account of results in patent US20260242353A1, “HETEROARYL DERIVATIVES AS DDRs INHIBITORS” (CHIESI FARMACEUTICI S.P.A., priority 2022, published 2026).

The target in assay [1] is T1, DDR2 (Homo sapiens, UniProt Q16832).
T1 construct: purchased Life Technologies
T1 sequence (Q16832 22-855): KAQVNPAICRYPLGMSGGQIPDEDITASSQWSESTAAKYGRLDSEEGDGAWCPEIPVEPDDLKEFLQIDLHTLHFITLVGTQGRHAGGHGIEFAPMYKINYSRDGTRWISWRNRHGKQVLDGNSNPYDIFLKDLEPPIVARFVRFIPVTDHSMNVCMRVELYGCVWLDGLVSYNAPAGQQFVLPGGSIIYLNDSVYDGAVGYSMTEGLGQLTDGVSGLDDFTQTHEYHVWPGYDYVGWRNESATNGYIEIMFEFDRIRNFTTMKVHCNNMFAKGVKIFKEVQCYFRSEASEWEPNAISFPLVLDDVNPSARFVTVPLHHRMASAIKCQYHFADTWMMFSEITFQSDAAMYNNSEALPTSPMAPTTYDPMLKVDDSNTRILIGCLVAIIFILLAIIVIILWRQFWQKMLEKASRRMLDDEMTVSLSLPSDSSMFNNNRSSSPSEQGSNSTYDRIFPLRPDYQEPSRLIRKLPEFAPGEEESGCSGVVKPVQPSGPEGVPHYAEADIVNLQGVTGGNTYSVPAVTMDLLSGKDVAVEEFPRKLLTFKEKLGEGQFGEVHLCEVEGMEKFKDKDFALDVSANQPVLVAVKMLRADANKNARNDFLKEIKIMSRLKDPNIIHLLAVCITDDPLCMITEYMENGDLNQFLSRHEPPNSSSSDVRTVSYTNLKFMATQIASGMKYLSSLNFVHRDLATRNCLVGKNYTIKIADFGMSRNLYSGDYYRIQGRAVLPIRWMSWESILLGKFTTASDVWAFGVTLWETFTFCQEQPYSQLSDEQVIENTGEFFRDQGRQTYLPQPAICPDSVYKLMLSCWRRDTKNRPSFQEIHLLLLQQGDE
The experiment in a line: LanthaScreen Europium Kinase Binding assay, DDR2. The settings on record: 5 nM DDR2, 10 nM Kinase Tracer 178, 1 h at rt; Ki from IC50 by Cheng-Prusoff; read-out: Ki DDR2. The protocol:
(§1) DDR1 and DDR2 binding assays were performed using Life Technologies LanthaScreen™ Europium Kinase Binding assay. The compounds were incubated with 5 nM DDR1 (Carna Biosciences) or 5 nM DDR2 (Life Technologies) for 1 h at rt in white 384-well OptiPlate (PerkinElmer), containing 20 nM or 10 nM Kinase Tracer 178 respectively and 2 nM Europium labelled anti-GST antibody (Life Technologies) in assay buffer (50 mM HEPES pH 7.5, 10 mM MgCI2, 1 mM EGTA and 0.01% BRIJ35). The ratio of fluorescence emission 665 nm/615 nm after excitation at 340 nm was obtained using the Tecan Spark 20M plate reader. IC50 values were determined in GraphPad Prism 7.0 software, using 4 parameter model: log(inhibitor) vs. response. IC50 values were converted in Ki using the Cheng-Prusoff equation (Ki=IC50/(1+[Tracer]/Kd).
For orientation: Time-resolved FRET reads energy transfer from a long-lived donor to a nearby acceptor.

Assay [2] addresses T2, DDR1 (Homo sapiens, UniProt Q08345).
T2 construct: purchased Carna Biosciences
Nature of the assay: LanthaScreen Europium Kinase Binding assay, DDR1. The settings on record: 5 nM DDR1, 20 nM Kinase Tracer 178, 1 h at rt; Ki from IC50 by Cheng-Prusoff; read-out: Ki DDR1. The protocol: as §1

For orientation: Ki means the equilibrium dissociation constant of an inhibitor or competing ligand from its target.

SMILES strings stand for the structures.

T2 sequence (Q08345 19-913): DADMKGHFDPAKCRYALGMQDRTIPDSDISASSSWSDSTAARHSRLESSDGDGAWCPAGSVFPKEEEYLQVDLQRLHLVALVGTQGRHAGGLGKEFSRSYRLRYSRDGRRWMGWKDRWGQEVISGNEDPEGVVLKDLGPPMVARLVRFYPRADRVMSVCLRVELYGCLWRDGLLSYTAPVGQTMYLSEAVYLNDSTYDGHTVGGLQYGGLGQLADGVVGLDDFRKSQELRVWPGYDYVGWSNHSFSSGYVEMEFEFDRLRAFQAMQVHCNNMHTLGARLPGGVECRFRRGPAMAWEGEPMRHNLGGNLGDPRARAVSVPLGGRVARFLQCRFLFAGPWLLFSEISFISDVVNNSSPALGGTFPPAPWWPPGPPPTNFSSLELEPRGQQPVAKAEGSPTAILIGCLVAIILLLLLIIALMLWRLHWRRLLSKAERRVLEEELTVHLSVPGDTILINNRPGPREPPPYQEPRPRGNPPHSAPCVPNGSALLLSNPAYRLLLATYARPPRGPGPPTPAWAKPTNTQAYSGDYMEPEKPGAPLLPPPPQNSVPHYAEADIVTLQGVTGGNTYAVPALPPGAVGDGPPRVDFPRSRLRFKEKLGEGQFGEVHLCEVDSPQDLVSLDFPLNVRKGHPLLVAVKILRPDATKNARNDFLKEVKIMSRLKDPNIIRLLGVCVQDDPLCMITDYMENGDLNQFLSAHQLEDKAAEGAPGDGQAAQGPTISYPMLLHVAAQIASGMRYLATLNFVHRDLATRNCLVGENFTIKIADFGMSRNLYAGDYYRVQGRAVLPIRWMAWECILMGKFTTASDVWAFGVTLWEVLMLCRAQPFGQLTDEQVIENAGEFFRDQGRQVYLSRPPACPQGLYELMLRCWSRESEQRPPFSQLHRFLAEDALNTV

`Cc1ccc(C(=O)Nc2cncc(OC(F)(F)F)c2)cc1[C@@H]1CCN(c2cncnc2)C1` [Example 18, (S)-4-methyl-3-(1-(pyrimidin-5-yl)pyrrolidin-3-yl)-N-(5-(trifluoromethoxy)pyridin-3-yl)benzamide]: the Ki in assay [1] and in assay [2] was under 5 nM each time.
On to `COc1ncc(N2CC[C@@H](c3cc(C(=O)Nc4cncc(C(F)(F)F)c4)ccc3C)C2)cn1` [Example 25, (S)-3-(1-(2-methoxypyrimidin-5-yl)pyrrolidin-3-yl)-4-methyl-N-(5-(trifluoromethyl)pyridin-3-yl)benzamide], for which the inhibition constant (Ki) in assay [1] was 5 to 25 nM; in assay [2], under 5 nM.
Consider `Cc1ccc(C(=O)Nc2cncc(C(F)(F)F)c2)cc1N1CC(Oc2cncc(C(N)=O)c2)C1` [Example 132, 5-((1-(2-methyl-5-((5-(trifluoromethyl)pyridin-3-yl)carbamoyl)phenyl)azetidin-3-yl)oxy)nicotinamide], for which the Ki in assay [1] was 5 to 25 nM; in assay [2] it was under 5 nM.
Consider `Cc1ccc(C(=O)Nc2cncc(C(F)(F)F)c2)cc1[C@@H]1CCN(c2cnc3ccccn23)C1` [Example 71, (S)-3-(1-(imidazo[1,2-a]pyridin-3-yl)pyrrolidin-3-yl)-4-methyl-N-(5-(trifluoromethyl)pyridin-3-yl)benzamide], for which the inhibition constant Ki in assay [1] and in assay [2] was under 5 nM in each case.
`Cc1ccc(C(=O)Nc2cncc(C(F)(F)F)c2)cc1[C@@H]1CCN(c2cc(C(N)=O)ncn2)C1` [Example 54, (S)-6-(3-(2-methyl-5-((5-(trifluoromethyl)pyridin-3-yl)carbamoyl)phenyl)pyrrolidin-1-yl)pyrimidine-4-carboxamide]: the inhibition constant Ki in assay [1] and in assay [2] was under 5 nM each time.
Consider `COc1ccc(C(=O)Nc2cncc(C(F)(F)F)c2)cc1C1CCN(c2ccnc(C(N)=O)c2)C1` (stereo not drawn) [Example 64, 4-(3-(2-methoxy-5-((5-(trifluoromethyl)pyridin-3-yl)carbamoyl)phenyl)pyrrolidin-1-yl)picolinamide], for which the Ki in assay [1] was 5 to 25 nM; in assay [2], under 5 nM.
For `Cc1ccc(C(=O)Nc2cc(C(C)(C)C)nn2C)cc1[C@@H]1CCN(c2cncc(C(N)=O)c2)C1` [Example 5, (S)-5-(3-(5-((3-(tert-butyl)-1-methyl-1H-pyrazol-5-yl)carbamoyl)-2-methylphenyl)pyrrolidin-1-yl)nicotinamide], the figures for the Ki in assay [1] and in assay [2] were 5 to 25 nM and under 5 nM, respectively.
As to `Cc1ccc(C(=O)Nc2cncc(C(F)(F)F)c2)cc1[C@@H]1CCN(c2cnc3[nH]cc(C(=O)NC4COC4)c3c2)C1` [Example 102, (S)-5-(3-(2-methyl-5-((5-(trifluoromethyl)pyridin-3-yl)carbamoyl)phenyl)pyrrolidin-1-yl)-N-(oxetan-3-yl)-1H-pyrrolo[2,3-b]pyridine-3-carboxamide], the values for the inhibition constant Ki in assay [1] and in assay [2] were 5 to 25 nM and under 5 nM, respectively.
For `Cc1ccc(C(=O)Nc2cncc(C(F)(F)F)c2)cc1[C@@H]1CCN(c2cnn3ccncc23)C1` [Example 32, (S)-4-methyl-3-(1-(pyrazolo[1,5-a]pyrazin-3-yl)pyrrolidin-3-yl)-N-(5-(trifluoromethyl)pyridin-3-yl)benzamide], in that order: under 5 nM and under 5 nM.
Turning to `Cc1ccc(C(=O)Nc2cncc(C(F)(F)F)c2)cc1C1CCN(c2cnn3cccnc23)C1` (stereo in doubt) [Example 90, 4-methyl-3-[(3R)-1-pyrazolo[1,5-a]pyrimidin-3-ylpyrrolidin-3-yl]-N-[5-(trifluoromethyl)-3-pyridyl]benzamide], the inhibition constant (Ki) in assay [1] was 5 to 25 nM; in assay [2], under 5 nM.
Take `Cc1ccc(C(=O)Nc2cncc(C(F)(F)F)c2)cc1[C@@H]1CCN(c2cnn(C)c2C(N)=O)C1` [Example 65, (S)-1-methyl-4-(3-(2-methyl-5-((5-(trifluoromethyl)pyridin-3-yl)carbamoyl)phenyl)pyrrolidin-1-yl)-1H-pyrazole-5-carboxamide]: the inhibition constant (Ki) is 5 to 25 nM in assay [1] and under 5 nM in assay [2].
Consider `Cc1ccc(C(=O)Nc2cncc(C(F)(F)F)c2)cc1C1CN(c2cncnc2)CC1O` (single isomer, unassigned) [Example 122, 3-(4-hydroxy-1-(pyrimidin-5-yl)pyrrolidin-3-yl)-4-methyl-N-(5-(trifluoromethyl)pyridin-3-yl)benzamide], for which the Ki is 5 to 25 nM in assay [1] and under 5 nM in assay [2].
Regarding `Cc1ccc(C(=O)Nc2cncc(C(F)(F)F)c2)cc1[C@@H]1CCN(c2cncc(C(=O)NC3COC3)c2)C1` [Example 38, (S)-5-(3-(2-methyl-5-((5-(trifluoromethyl)pyridin-3-yl)carbamoyl)phenyl)pyrrolidin-1-yl)-N-(oxetan-3-yl)nicotinamide], the Ki in assay [1] and in assay [2] was under 5 nM throughout.
In the case of `Cc1ccc(C(=O)Nc2cc(C(F)(F)F)ccn2)cc1[C@@H]1CCN(c2cncnc2)C1` [Example 15, (S)-4-methyl-3-(1-(pyrimidin-5-yl)pyrrolidin-3-yl)-N-(4-(trifluoromethyl)pyridin-2-yl)benzamide], the inhibition constant (Ki) in assay [1] and in assay [2] was under 5 nM throughout.
In the case of `Cc1ccc(C(=O)Nc2cncc(C(F)(F)F)c2)cc1[C@@H]1CCN(c2cnn3ccc(N4CCN(C)CC4)nc23)C1` [Example 83, (S)-4-methyl-3-(1-(5-(4-methylpiperazin-1-yl)pyrazolo[1,5-a]pyrimidin-3-yl)pyrrolidin-3-yl)-N-(5-(trifluoromethyl)pyridin-3-yl)benzamide], the inhibitory constant (Ki) is 5 to 25 nM in assay [1] and under 5 nM in assay [2].
For `Cc1ccc(C(=O)Nc2cncc(C(F)(F)F)c2)cc1[C@@H]1CN(c2cncnc2)C[C@H]1CO` (racemic) [Example 104, 3-((3R,4S)-3-(4-(hydroxymethyl)-1-(pyrimidin-5-yl)pyrrolidin-3-yl)-4-methyl-N-(5-(trifluoromethyl)pyridin-3-yl)benzamide and 3-((3S,4R)-3-(4-(hydroxymethyl)-1-(pyrimidin-5-yl)pyrrolidin-3-yl)-4-methyl-N-(5-(trifluoromethyl)pyridin-3-yl)benzamide], in that order: 5 to 25 nM and under 5 nM.
For the compound `Cc1ccc(C(=O)Nc2cc(C(F)(F)F)ncn2)cc1[C@@H]1CCN(c2cncc(C#N)c2)C1` [Example 8, (S)-3-(1-(5-cyanopyridin-3-yl)pyrrolidin-3-yl)-4-methyl-N-(6-(trifluoromethyl)pyrimidin-4-yl)benzamide], the Ki in assay [1] was 5 to 25 nM; in assay [2], under 5 nM.
For the compound `Cc1ccc(C(=O)Nc2cncc(C(F)(F)F)c2)cc1[C@@H]1CCN(c2cnccc2C(=O)NC2COC2)C1` [Example 41, (S)-3-(3-(2-methyl-5-((5-(trifluoromethyl)pyridin-3-yl)carbamoyl)phenyl)pyrrolidin-1-yl)-N-(oxetan-3-yl)isonicotinamide], the Ki in assay [1] was 25 to 100 nM; in assay [2] it was under 5 nM.
For `Cc1ccc(C(=O)Nc2cc(OC(F)(F)F)ccn2)cc1[C@@H]1CCN(c2cncnc2)C1` [Example 12, (S)-4-methyl-3-(1-(pyrimidin-5-yl)pyrrolidin-3-yl)-N-(4-(trifluoro-methoxy)pyridin-2-yl)benzamide], the Ki in assay [1] and in assay [2] was under 5 nM in each case.
Regarding `CCc1cc(NC(=O)c2ccc(C)c([C@@H]3CCN(c4cnn5cccnc45)C3)c2)no1` [Example 95, (S)-N-(5-ethylisoxazol-3-yl)-4-methyl-3-(1-(pyrazolo[1,5-a]pyrimidin-3-yl)pyrrolidin-3-yl)benzamide], the Ki in assay [1] and in assay [2] was under 5 nM each time.
Regarding `Cc1ccc(C(=O)Nc2cncc(C(F)(F)F)c2)cc1[C@@H]1CCN(c2ncnc3cc(C(=O)N4CCN(C)CC4)sc23)C1` [Example 126, (S)-4-methyl-3-(1-(6-(4-methylpiperazine-1-carbonyl)thieno[3,2-d]pyrimidin-4-yl)pyrrolidin-3-yl)-N-(5-(trifluoromethyl)pyridin-3-yl)benzamide], the inhibitory constant (Ki) in assay [1] is 5 to 25 nM; in assay [2], under 5 nM.
